Values quoted from earlier work as cited in publication PMC7395068, “The evolution of strategies to minimise the risk of human drug-induced liver injury (DILI) in drug discovery and development” (Archives of Toxicology, 2020).
Like-named read-outs stand apart in the source and are kept apart here.

Settings: cited from earlier work
[1] = LTKB DILIrank category, ref Chen 2016
[2] = binary DILI call, ref Chen 2016
[3] = binary in vivo human DILI call, ref Chen 2016
[4] = human DILI, LTKB DILIrank category, ref Chen 2016
[5] = binary in vivo DILI call given beside the severity category, ref Chen 2016
[6] = human DILI concern category (LTKB DILIrank), ref Chen 2016

Compound | DILI +VE (5-8), DILI -VE (-4) [3] | DILI severity category [4] | DILI +VE (5-8), DILI -VE (-4) [5] | DILI severity category [6] | also measured
ofatumumab |  |  |  |  | DILI +VE (5-8), DILI -VE (-4) (in vivo): -VE; DILI severity category (in vivo): vNo-DILI-Concern
infliximab |  |  |  |  | DILI +VE (5-8), DILI -VE (-4) (in vivo): +VE; DILI severity category (in vivo): vMost-DILI-Concern
C[C@H]1CN(C[C@H](Cc2ccccc2)C(=O)NCC(=O)O)CC[C@@]1(C)c1cccc(O)c1 [alvimopan] |  |  |  |  | DILI severity category [1]: vNo-DILI-Concern; DILI +VE (5-8), DILI -VE (-4) [2]: -VE
CCCCCOC(=O)Nc1nc(=O)n([C@@H]2O[C@H](C)[C@@H](O)[C@H]2O)cc1F [capecitabine] |  |  |  |  | DILI severity category [1]: Ambiguous DILI-concern; DILI +VE (5-8), DILI -VE (-4) [2]: -VE
CNC[C@H](O)c1ccc(O)c(O)c1 [epinephrine] | -VE | vNo-DILI-Concern |  |  | 
CN(C)c1cc(NC(=O)CNC(C)(C)C)c(O)c2c1C[C@H]1C[C@H]3[C@H](N(C)C)C(O)=C(C(N)=O)C(=O)[C@@]3(O)C(O)=C1C2=O [tigecycline] |  |  | -VE | Ambiguous DILI-concern | 
CSCC[C@H](NC(=O)[C@H](Cc1ccc(OS(=O)(=O)O)cc1)NC(=O)[C@@H](N)CC(=O)O)C(=O)NCC(=O)N[C@@H](Cc1c[nH]c2ccccc12)C(=O)N[C@@H](CCSC)C(=O)N[C@@H](CC(=O)O)C(=O)N[C@@H](Cc1ccccc1)C(N)=O [sincalide] |  |  |  |  | DILI +VE (5-8), DILI -VE (-4) (in vivo): -VE; DILI severity category (in vivo): vNo-DILI-Concern
CCNC(=O)[C@@H]1CCCN1C(=O)[C@H](CCCNC(=N)N)NC(=O)[C@H](CC(C)C)NC(=O)[C@@H](Cc1cn(Cc2ccccc2)cn1)NC(=O)[C@H](Cc1ccc(O)cc1)NC(=O)[C@H](CO)NC(=O)[C@H](Cc1c[nH]c2ccccc12)NC(=O)[C@H](Cc1cnc[nH]1)NC(=O)[C@@H]1CCC(=O)N1 [histrelin acetate] | -VE | Ambiguous DILI-concern |  |  | 
CCOc1ccc2ccccc2c1C(=O)N[C@@H]1C(=O)N2[C@@H]1SC(C)(C)[C@@H]2C(=O)O [nafcillin] |  |  | +VE | vLess-DILI-Concern | 
CC(C)Nc1ncccn1 [isaxonine] | +VE | vMost-DILI-Concern |  |  | 
Fc1ccccc1C1=NCC(=S)N(CC(F)(F)F)c2ccc(Cl)cc21 [quazepam] |  |  | -VE | vNo-DILI-Concern | 
CC1=C(C/C=C(\C)CCC[C@H](C)CCC[C@H](C)CCCC(C)C)C(=O)c2ccccc2C1=O [phytonadione] |  |  | -VE | vNo-DILI-Concern | 
OCCN1C[C@H](O)[C@@H](O)[C@H](O)[C@H]1CO [miglitol] |  |  | -VE | vNo-DILI-Concern | 
Nc1nc2[nH]cc(CCc3ccc(C(=O)N[C@@H](CCC(=O)O)C(=O)O)cc3)c2c(=O)[nH]1 [pemetrexed] |  |  | -VE | Ambiguous DILI-concern | 
O=C1NC(c2ccccc2)(c2ccccc2)C(=O)N1COP(=O)(O)O [fosphenytoin] | +VE | vMost-DILI-Concern |  |  | 
CCCCN1C[C@H](O)[C@@H](O)[C@H](O)[C@H]1CO [miglustat] |  |  | -VE | vNo-DILI-Concern | 
C[C@]12CC[C@@H]3c4ccc(OC(=O)N(CCCl)CCCl)cc4CC[C@H]3[C@@H]1CC[C@@H]2O [estramustine] | +VE | vMost-DILI-Concern |  |  | 
C#C[C@]1(O)CC[C@H]2[C@@H]3CCC4=CC(=O)CC[C@@H]4[C@H]3CC[C@@]21CC [levonorgestrel] |  |  |  |  | DILI +VE (5-8), DILI -VE (-4) (in vivo): -VE; DILI severity category (in vivo): vNo-DILI-Concern
O=C(O)CN(CCN(CC(=O)O)CC(=O)O)CC(=O)O [edetic acid] |  |  |  |  | DILI +VE (5-8), DILI -VE (-4) (in vivo): -VE; DILI severity category (in vivo): Ambiguous DILI-concern
CN1CCc2cccc3c2[C@H]1Cc1ccc(O)c(O)c1-3 [apomorphine] |  |  |  |  | DILI severity category [1]: vNo-DILI-Concern; DILI +VE (5-8), DILI -VE (-4) [2]: -VE
Nc1ccn([C@@H]2O[C@H](CO)[C@@H](O)C2(F)F)c(=O)n1 [gemcitabine] | +VE | vMost-DILI-Concern |  |  | 
exenatide | -VE | vNo-DILI-Concern |  |  | 
O=C1C(O)=C([C@H]2CC[C@H](c3ccc(Cl)cc3)CC2)C(=O)c2ccccc21 [atovaquone] |  |  |  |  | DILI severity category [1]: Ambiguous DILI-concern; DILI +VE (5-8), DILI -VE (-4) [2]: -VE
natalizumab |  |  |  |  | DILI +VE (5-8), DILI -VE (-4) (in vivo): +VE; DILI severity category (in vivo): vMost-DILI-Concern
CC(C)(C)NCC(O)c1ccc(O)c(CO)c1 (stereo not drawn) [salbutamol] |  |  | -VE | vNo-DILI-Concern | 
Nc1nc(=O)n([C@@H]2CS[C@H](CO)O2)cc1F [emtricitabine] | -VE | Ambiguous DILI-concern |  |  | 
CCCN[C@H]1CCc2nc(N)sc2C1 [pramipexole] |  |  | -VE | Ambiguous DILI-concern | 
CC(C)(Oc1ccc(C(=O)c2ccc(Cl)cc2)cc1)C(=O)O [fenofibric acid] | -VE | Ambiguous DILI-concern |  |  | 
peginterferon alfa-2a |  |  |  |  | DILI +VE (5-8), DILI -VE (-4) (in vivo): -VE; DILI severity category (in vivo): Ambiguous DILI-concern
NC(=O)NS(=O)(=O)c1ccc(N)cc1 [sulfacarbamide] |  |  | +VE | vMost-DILI-Concern | 
